Measurements taken from patent US6432987B1, “Substituted N-benzylindol-3-ylglyoxylic acid derivatives having antitumor action” (Zentaris AG, priority 1999, dated 2002).

System: tubulin
Test: tubulin polymerization assay
Format: biochemical
Conditions: result in words only
From the text: It was possible to show the activity of the present compounds in a tubulin polymerization assay.

With `Nc1ccc(Cn2cc(C(=O)C(=O)Nc3ccncc3)c3ccccc32)cc1` [Example D-68838, N-(Pyridin-4-yl)-[1-(4-aminobenzyl)indol-3-yl]glyoxyl-amide] as the compound, how does the “inhibition of the polymerization of tubulin” value read?
Its value is “inhibits the polymerization of tubulin”.
